Measured values as given in patent US20140065697A1, “CELLS AND METHODS FOR PRODUCING ISOBUTYRIC ACID” (Regents of the University of Minnesota, priority 2011, published 2014).
Read-outs that look alike come from different tables or passages of the source.

Key:
[1] = target: T1, PadA (Escherichia coli, UniProt P80668); test: Measurement of PadA activity (NADH generation at 340 nm, Michaelis-Menten fit); assay type: biochemical, E. coli; conditions: for kcat: substrate isobutyraldehyde
T1 construct: […]; 6xHis (N); made in house; host or cells: E. coli BL-21 harboring pREP4; plasmid pIBA10 (pQE9)
T1 sequence (P80668 1-499): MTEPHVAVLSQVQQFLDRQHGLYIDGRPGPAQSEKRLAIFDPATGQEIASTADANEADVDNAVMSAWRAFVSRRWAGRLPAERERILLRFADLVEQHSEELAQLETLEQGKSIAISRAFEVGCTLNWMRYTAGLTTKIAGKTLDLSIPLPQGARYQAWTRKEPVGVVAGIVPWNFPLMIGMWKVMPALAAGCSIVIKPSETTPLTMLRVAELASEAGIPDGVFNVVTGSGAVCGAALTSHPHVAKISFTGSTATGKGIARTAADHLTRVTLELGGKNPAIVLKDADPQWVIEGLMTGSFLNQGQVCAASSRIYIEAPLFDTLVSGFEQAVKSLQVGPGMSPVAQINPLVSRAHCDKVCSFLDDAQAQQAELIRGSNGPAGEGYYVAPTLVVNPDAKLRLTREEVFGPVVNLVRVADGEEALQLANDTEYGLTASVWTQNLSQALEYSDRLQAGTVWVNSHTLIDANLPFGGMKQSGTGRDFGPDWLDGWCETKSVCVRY
Protocol: (§1) Because it produced the greatest amount of isobutyrate, we selected PadA for further study. To characterize the enzyme, PadA was tagged with an N-terminal 6×His-tag, overexpressed, and purified through a Ni-NTA column. The kinetic parameters for conversion of isobutyraldehyde by PadA were determined by measuring the reduction of NAD+ to NADH at 340 nm. PadA activity toward isobutyraldehyde is much lower than that toward its natural physiological substrate phenylacetaldehyde.
(§2) pIBA10 was transformed into BL-21 E. coli host harboring the pREP4 plasmid (Qiagen; Valencia, Calif.). An overnight pre-culture was diluted 100-fold in 300 mL 2×YT rich medium containing 50 mg/L ampicillin, 25 mg/L kanamycin and 0.1 mM IPTG. Expression of recombinant protein was performed at 30° C. overnight.
(§3) The cell pellet was sonicated in 30 mL lysis buffer (250 mM NaCl, 2 mM DTT, 5 mM imidazole and 50 mM Tris pH 8.0). The cellular debris was removed by centrifugation at 15,000 RPM for 20 minutes. The supernatant was passed through a Ni-NTA column. Then the column was washed with 10 mL wash buffer (250 mM NaCl, 20 mM imidazole and 50 mM Tris pH 8.0) four times. Finally, the target protein was eluted with 10 mL elution buffer (250 mM NaCl, 250 mM imidazole and 50 mM Tris pH 8.0). The eluate was buffer-exchanged and concentrated into storage buffer ([…] tris buffer, pH 8.0, and 20% glycerol) using AMICON ULTRA centrifugal filter (Millipore Corp.; Billerica, Mass.). Protein concentration was determined by measuring the UV absorbance at 280 nm (extinction coefficient, 75070 cm^−1 M^−1). The concentrated protein solution was aliquoted (100 μl) into PCR tubes and flash frozen at −80° C. for long term storage.
(§4) Substrate isobutyraldehyde was purchased from Fisher Scientific International, Inc. (Hampton, N.H.), and NAD^+ was from New England Biolabs, Inc., (Ipswich, Mass.). The reaction mixture contained 0.5 mM NAD^+ and 0.2-4 mM isobutyraldehyde in assay buffer (50 mM NaH2PO4, pH 8.0, 1 mM DTT) with a total volume of 80 μl. The reactions were started by adding 2 μl […] (final enzyme concentration 25 nM), and the generation of NADH was monitored at 340 nm (extinction coefficient, 6.22 mM^−1 cm^−1). Kinetic parameters (kat and Km) were determined by fitting initial velocity data to the Michaelis-Menten equation using Origin software.

[2] = target: YqhD (Escherichia coli, UniProt Q46856); conditions: Atsumi et al., 2010; cited from earlier work
[3] = target: T1, PadA; conditions: natural substrate phenylacetaldehyde (asterisked line); cited from earlier work
[4] = system: CC(C)C=O; test: Measurement of PadA activity (NADH generation at 340 nm, Michaelis-Menten fit); assay type: biochemical, E. coli; conditions: other: PadA, substrate isobutyraldehyde, 0.5 mM NAD+, pH 8.0, 30.0 °C
Protocol: as §1, §2, §3, §4

Sequence of YqhD (Q46856 whole entry): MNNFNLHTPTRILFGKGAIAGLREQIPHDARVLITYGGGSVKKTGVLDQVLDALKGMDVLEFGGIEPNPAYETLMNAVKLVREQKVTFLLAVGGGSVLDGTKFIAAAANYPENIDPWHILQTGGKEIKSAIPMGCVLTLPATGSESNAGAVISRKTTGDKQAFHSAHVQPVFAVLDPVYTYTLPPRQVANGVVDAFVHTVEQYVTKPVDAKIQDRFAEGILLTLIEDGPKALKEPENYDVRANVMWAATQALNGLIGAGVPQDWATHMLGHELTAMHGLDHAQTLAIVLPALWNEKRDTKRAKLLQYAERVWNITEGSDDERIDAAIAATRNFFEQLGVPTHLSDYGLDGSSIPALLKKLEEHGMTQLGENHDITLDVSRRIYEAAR

## CC(C)C=O [Isobutyraldehyde, isobutyraldehyde]
[1]
  Km value higher than toward phenylacetaldehyde: 230 fold
  kcat value lower than toward phenylacetaldehyde: 4 fold
  kcat: 24.9 ± 0.5 s⁻¹
[1]; listed as isobutyraldehyde
  kcat: 24.9 s⁻¹
[2]
  Km: 1800 µM

## O=CCc1ccccc1 [Phenylacetaldehyde, phenylacetaldehyde]
[1]
  specificity constant kcat/Km higher than towards isobutyraldehyde: ~1000 fold
[3]
  Km: 11.6 µM
  kcat: 96.83 s⁻¹

## PadA (Escherichia coli K-12)
[4]
  Km: 2670 µM
